In US20200121716A1, “Method for Inhibiting Both Glycolysis and Glutamine Metabolism in Cells and Use Thereof” (priority 2017, published 2020):

Tested on: anaerobia
Assay: spontaneous anaerobic fermentation of flour paste sealed with rapeseed oil
Assay type: cell-based

Compound	aqueous solution above the settled flour
O=C([O-])C(=O)[O-].[Na+].[Na+] [sodium oxalate]	clear and transparent
O=CO [formic acid]	clear and transparent
